The values below come from patent US20090318690A1 (priority 2006, published 2009).

A word on the pIC50: it is −log10 of the IC50, conventionally taken in molar units.

The target in one test is T1, acetylcholine esterase (Rattus norvegicus, UniProt P37136).
T1 construct: a centrifugation supernatant of a male Wistar rat cerebral homogenate as an acetylcholine esterase source; from tissue; host or cells: male Wistar rat cerebrum, Triton X-100 homogenate supernatant
T1 sequence (P37136 32-614): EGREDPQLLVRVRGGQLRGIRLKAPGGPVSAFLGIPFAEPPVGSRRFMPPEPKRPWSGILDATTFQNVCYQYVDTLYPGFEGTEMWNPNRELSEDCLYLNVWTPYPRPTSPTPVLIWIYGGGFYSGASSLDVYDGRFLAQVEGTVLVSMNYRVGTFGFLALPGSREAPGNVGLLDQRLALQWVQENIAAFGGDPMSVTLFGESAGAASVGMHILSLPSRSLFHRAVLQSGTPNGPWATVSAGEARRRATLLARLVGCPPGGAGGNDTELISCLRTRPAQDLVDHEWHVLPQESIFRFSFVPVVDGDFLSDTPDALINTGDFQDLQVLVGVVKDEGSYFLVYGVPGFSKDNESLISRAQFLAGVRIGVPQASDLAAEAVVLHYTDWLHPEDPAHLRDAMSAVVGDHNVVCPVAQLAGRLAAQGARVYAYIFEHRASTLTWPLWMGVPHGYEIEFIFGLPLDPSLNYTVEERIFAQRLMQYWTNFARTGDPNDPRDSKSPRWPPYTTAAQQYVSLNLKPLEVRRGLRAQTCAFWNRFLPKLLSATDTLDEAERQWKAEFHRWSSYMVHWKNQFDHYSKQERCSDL
Briefly: Acetylcholine esterase inhibitory activity (Ellman method). To be noted: supernatant of male Wistar rat cerebral homogenate; acetylthiocholine/DTNB, absorbance 412 nm; read-out: Acetylcholine esterase inhibition (IC50). The class given is biochemical. As for the experimental part:
Esterase activity was measured according to the method of Ellman et al. (Biochem. Pharmacol., 1961, 7, 88-95) using a centrifugation supernatant of a male Wistar rat cerebral homogenate as an acetylcholine esterase source. First, a sample dissolved in dimethyl sulfoxide (DMSO) (10 mM) was dissolved in water to 30 μM, and eight serial dilutions were prepared at a common ratio of 3 with 30 μM as a highest concentration. Next, 18 times weight of a phosphate buffer [0.1 M phosphate buffer (0.1 M Na2HPO4, prepared from 0.1 M KH2PO4; pH 8.0) with 0.5% Triton X-100] was added to the rat cerebrum. The mixture was homogenized and centrifuged at 3000 rpm for five minutes. The supernatant was diluted 30-fold with a phosphate buffer (pH 8.0) and dispensed to a 96-well plate at 165 μL/well. 6 μL of the diluted sample was added, followed by preincubation at room temperature for about 10 minutes. Thereafter, 9 μL of a reaction mixture [10 mM 5,5′-dithiobis(2-nitrobenzoic acid) (DTNB)/0.1 M phosphate buffer (pH 7.0) with 6 μL of 0.15% NaHCO3+90 mM acetylthiocholine iodide/1 μL of H2O+2 μL of 0.1 M phosphate buffer (pH 8.0)] was added and the absorbance (412 nm) of anions (yellow) of 5-thio-2-nitrobenzoic acid generated by reaction of the produced thiocholine with DTNB anions was measured at room temperature. The acetylcholine esterase activity was determined from the change in absorbance between two minutes and four minutes after the start of the reaction. The inhibition rate (%) of the test compound was determined based on the acetylcholine esterase activity when the compound was not added as 100% and the 50% inhibition concentration (IC50) was calculated.

Test [1] deals with T2, serotonin transporter (SERT) (Rattus norvegicus, UniProt P31652).
T2 construct: The rat cerebral cortex was homogenized in ice-cold 0.32 M sucrose; from tissue; host or cells: rat cerebral cortex membrane fraction
Briefly: Serotonin transporter binding inhibitory activity ([3H]paroxetine binding, rat cerebral cortex membrane fraction). As to the method: Affinity of the test substance to a serotonin transporter (SERT) was determined by a test of inhibition of binding of [^3H]paroxetine selectively binding to SERT to a rat cerebral cortex membrane fraction by the test substance. Serotonin reuptake inhibitors are generally known to have SERT binding inhibitory activity. Based on the assumption that the intensity of SERT binding inhibitory activity of the test substance indicates the intensity of reuptake inhibitory activity, affinity of the test substance to SERT was determined and the intensity of the activity was estimated (according to the method described in Marcusson, J.; Eriksson, K; J. Neurochemistry, 1988, 51 (5), 1477).
The rat cerebral cortex was homogenized in ice-cold 0.32 M sucrose. The suspension was centrifuged at 1,000×g for 10 minutes. The resulting supernatant was further centrifuged at 20,000×g for 20 minutes. The resulting precipitate was suspended in 50 mM Tris-HCl (pH 7.4) containing 120 mM NaCl and 5 mM KCl (hereinafter called suspension A) and centrifuged at 20,000×g for 20 minutes. The same operation was repeated once more. The finally obtained precipitate was suspended in a suspension A having a wet weight about 100 times that of the rat cerebral cortex to prepare a membrane fraction which was stored at −80° C. until use.
An incubation mixture (0.5 mL) contained a solution obtained by further diluting the test substance dissolved in DMSO (dimethyl sulfoxide) to a desired concentration (control: only DMSO) 500-fold with purified water (25 μL); a [^3H]paroxetine solution (final concentration: 0.05 nM) as a ligand (25 μL); and the membrane fraction prepared as described above (450 μL). The reaction was started by addition of the membrane fraction, followed by incubation at room temperature for 90 minutes. After the incubation, the mixture was filtered by suction through a GF/B filter using a cell harvester. The filter was washed with 50 mM Tris-HCl (pH 7.4) and then radioactivity of [^3H]paroxetine binding to SERT was measured using a liquid scintillation counter. Binding detected in the presence of 1 or 10 μM fluoxetine was defined as non-specific binding.

pIC50: −log10 of the molar value. Where a name gives a salt, the structure may show the parent alone.

T2 sequence (P31652 whole entry): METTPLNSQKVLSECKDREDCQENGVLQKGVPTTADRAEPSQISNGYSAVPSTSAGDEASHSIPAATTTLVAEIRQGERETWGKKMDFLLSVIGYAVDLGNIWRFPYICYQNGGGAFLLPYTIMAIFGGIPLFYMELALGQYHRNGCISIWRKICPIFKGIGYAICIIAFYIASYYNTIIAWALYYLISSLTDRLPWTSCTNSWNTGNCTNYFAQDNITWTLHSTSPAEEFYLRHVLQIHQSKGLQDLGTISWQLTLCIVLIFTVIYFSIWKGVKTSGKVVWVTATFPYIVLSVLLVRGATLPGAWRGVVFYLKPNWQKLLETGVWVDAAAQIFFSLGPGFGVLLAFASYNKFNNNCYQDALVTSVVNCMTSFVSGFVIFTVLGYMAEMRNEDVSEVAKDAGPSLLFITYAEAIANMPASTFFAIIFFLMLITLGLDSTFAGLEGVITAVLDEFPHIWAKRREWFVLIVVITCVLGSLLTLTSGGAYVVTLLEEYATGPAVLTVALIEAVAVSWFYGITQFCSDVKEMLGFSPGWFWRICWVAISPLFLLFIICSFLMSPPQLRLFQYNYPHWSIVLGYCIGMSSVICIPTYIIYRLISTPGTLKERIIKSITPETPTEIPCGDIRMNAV

`CN(C)Cc1c(OCc2ccc(F)cc2)ccc2c(CCC3CCN(CC4OCCO4)CC3)noc12` [Example 22, N,N-Dimethyl{3-{2-[1-(1,3-dioxolan-2-ylmethyl)piperidin-4-yl]ethyl}-6-(4-fluorobenzyloxy)benz[d]isoxazol-7-yl}methylamine dihydrobromide]: the pIC50 on acetylcholine esterase is 8.39; in test [1], 8.80.
For the compound `CN(C)Cc1c(OCC2CC2)ccc2c(CCC3CCN(Cc4ccccc4)CC3)noc12` [Example 39, N,N-Dimethyl{6-cyclopropylmethoxy-3-[2-(1-benzylpiperidin-4-yl)ethyl]benz[d]isoxazol-7-yl}methylamine dihydrochloride], the negative-log IC50 (pIC50) at acetylcholine esterase was 9.40; in test [1], 7.89.
Turning to `CN(C)Cc1c(OCC2CC2)ccc2c(CCC3CCN(CC4(CO)CCCC4)CC3)noc12` [Example 51, {1-{4-{2-[6-Cyclopropylmethoxy-7-(N,N-dimethylaminomethyl)benz[d]isoxazol-3-yl]ethyl}piperidinomethyl}cyclopentyl}methanol dihydrochloride], the values for the pIC50 (on acetylcholine esterase; in test [1]) were 8.44 and 8.72, respectively.
As for `CNCc1c(OCc2ccc(F)cc2)ccc2c(CCC3CCN(CC4OCCO4)CC3)noc12` [Example 78, N-Methyl{3-{2-[1-(1,3-dioxolan-2-ylmethyl)piperidin-4-yl]ethyl}-6-(4-fluorobenzyloxy)benz[d]isoxazol-7-yl}methylamine dihydrochloride], the pIC50 at acetylcholine esterase is 9.15; in test [1], 8.96.
In the case of `CN(C)Cc1c(OCC2CC2)ccc2c(CCC3CCN(Cc4c[nH]c5ccc(F)cc45)CC3)noc12` [Example 88, N,N-Dimethyl{6-cyclopropylmethoxy-3-{2-[1-(5-fluoro-1H-indol-3-ylmethyl)piperidin-4-yl]ethyl}benz[d]isoxazol-7-yl}methylamine dihydrochloride], the figures for the pIC50 (at acetylcholine esterase; in test [1]) were 8.11 and 8.28, respectively.
In the case of `CN(C)Cc1c(OCC2CC2)ccc2c(CCC3CCN(CC4CCCc5sccc54)CC3)noc12` (centres unmarked) [Example 93, N,N-Dimethyl{6-cyclopropylmethoxy-3-{2-[1-(4,5,6,7-tetrahydrobenzo[b]thiophen-4-ylmethyl)piperidin-4-yl]ethyl}benz[d]isoxazol-7-yl}methylamine dihydrochloride], the pIC50 at acetylcholine esterase was 7.14; in test [1] it was 8.05.
Take `N#Cc1ccc(CN2CCC(CCc3noc4c(CN5CCC5)c(OCC5CC5)ccc34)CC2)s1` [Example 118, 5-{4-{2-[7-(Azetidin-1-ylmethyl)-6-cyclopropylmethoxybenz[d]isoxazol-3-yl]ethyl}piperidinomethyl}thiophene-2-carbonitrile fumarate]: the pIC50 is 7.92 at acetylcholine esterase and 8.00 in test [1].
In the case of `CN(C)Cc1c(-c2ccccc2)ccc2c(CCC3CCN(Cc4ccccc4)CC3)noc12` [Example 120, N,N-Dimethyl{3-[2-(1-benzylpiperidin-4-yl)ethyl]-6-phenylbenz[d]isoxazol-7-yl}methylamine dihydrochloride], the pIC50 at acetylcholine esterase was 8.89; in test [1], 9.05.
Take `CN(C)Cc1c2ccccc2cc2c(CCC3CCN(Cc4ccc(C#N)s4)CC3)noc12` [Example 151, 5-{4-{2-[9-(N,N-Dimethylaminomethyl)naphtho[2,3-d]isoxazol-3-yl]ethyl}piperidinomethyl}thiophene-2-carbonitrile dihydrochloride]: the pIC50 on acetylcholine esterase was 7.48; in test [1], 7.27.
As to `CNCc1c2ccccc2cc2c(CCC3CCN(Cc4ccc(C#N)s4)CC3)noc12` [Example 152, 5-{4-{2-[9-(N-Methylaminomethyl)naphtho[2,3-d]isoxazol-3-yl]ethyl}piperidinomethyl}thiophene-2-carbonitrile dihydrochloride], the pIC50 at acetylcholine esterase is 8.31; in test [1] it was 8.00.
Take `CN(C)Cc1c(OCc2ccc(C#N)cc2)ccc2c(CCC3CCN(Cc4ccccc4)CC3)noc12` [Example 153, 4-{3-[2-(1-Benzylpiperidin-4-yl)ethyl]-7-(N,N-dimethylaminomethyl)benz[d]isoxazol-6-yloxymethyl}benzonitrile dihydrochloride]: the pIC50 at acetylcholine esterase is 9.40; in test [1], 9.52.
In the case of `CN(C)Cc1c(OCc2ccc(C#N)cc2)ccc2c(CCC3CCN(CC4OCCO4)CC3)noc12` [Example 154, 4-{7-(N,N-Dimethylaminomethyl)-3-{2-[1-(1,3-dioxolan-2-ylmethyl)piperidin-4-yl]ethyl}benz[d]isoxazol-6-yloxymethyl}benzonitrile fumarate], the pIC50 was 8.52 on acetylcholine esterase and 9.00 in test [1].
`CN(C)Cc1c(OCC2CC2)ccc2c(CCC3CCN(Cc4ccc(C#N)s4)CC3)noc12` [Example 155, 5-{4-{2-[6-Cyclopropylmethoxy-7-(N,N-dimethylaminomethyl)benz[d]isoxazol-3-yl]ethyl}piperidinomethyl}thiophene-2-carbonitrile dihydrochloride]: the pIC50 at acetylcholine esterase was 8.30; in test [1] it was 8.28.
`CN(C)Cc1ccc2c(CCC3CCN(Cc4ccccc4)CC3)noc2c1OCC1CC1` [Example 178, N,N-Dimethyl{3-[2-(1-benzylpiperidin-4-yl)ethyl]-7-cyclopropylmethoxybenz[d]isoxazol-6-yl}methylamine dihydrochloride]: the results for the pIC50 (on acetylcholine esterase; in test [1]) were 8.39 and 7.21, respectively.
Consider `CN(C)Cc1c(N2CCCCC2)ccc2c(CCC3CCN(Cc4ccc(C#N)s4)CC3)noc12` [Example 210, 5-{4-{2-[7-(N,N-Dimethylaminomethyl)-6-piperidinobenz[d]isoxazol-3-yl]ethyl}piperidinomethyl}thiophene-2-carbonitrile dihydrochloride], for which the pIC50 is 8.62 at acetylcholine esterase and 7.92 in test [1].
Regarding `CN(C)Cc1c(N2CCOCC2)ccc2c(CCC3CCN(Cc4ccc(C#N)s4)CC3)noc12` [Example 213, 5-{4-{2-[7-(N,N-Dimethylaminomethyl)-6-morpholinobenz[d]isoxazol-3-yl]ethyl}piperidinomethyl}thiophene-2-carbonitrile dihydrochloride], the pIC50 at acetylcholine esterase was 8.52; in test [1], 7.72.
